Assay results taken from paper PMC3667588 (Journal of pharmacological and toxicological methods, 2012).
“And” between values parts separate entries of the source, which are not always exact repeats. Equal entries are not always repeated. Where two headings read alike, the source gives them in different places.

Columns and labels:
[1] = test system: hiPSC-derived cardiomyocytes; assay: KIC spontaneous calcium transients in hiPSC-derived cardiomyocytes; type: cell-based, human; conditions: for Effect on spontaneous calcium transient (in words): dose-response; for EC50 T75-25 (in words) / EC50 FWHM (in words) / EC50 Rise Time (in words) / EC50 Decay (in words): N.S., not significant vs vehicle by ANOVA/Dunnett
[2] = test system: L-type Ca^2+ channel; conditions: CR-mc; ref Ogawa, et al., 1992; cited from earlier work
[3] = test system: hiPSC-CMs; type: cell-based, human; conditions: for Effect on paced [Ca^2+]i transients at 1 µM / Effect on paced [Ca^2+]i transients at 10 µM: 1 Hz pacing; for Effect on paced [Ca^2+]i transients at 0.1 µM: 4 stimulations at 1 Hz
[4] = test system: hERG; conditions: cited from earlier work; for Reported EC50/IC50: PC-cc, et al.
[5] = test system: hERG K^+ channel; conditions: PC-Xl; ref Hansen, et al., 2006; cited from earlier work
[6] = test system: KATP channel; conditions: TM-ec; ref Houjou, et al., 1996; cited from earlier work
[7] = test system: NRVMs; assay: KIC Ca2+ transient analysis in neonatal rat ventricular myocytes; type: cell-based; conditions: for FWHM / T75-25 / TDecay / TRise: NRVMs treated three days with 100 nM T3, Ca2+ transient
[8] = test system: Na^+ channel; conditions: PC-Xl; ref Ramos & O'Leary, 2004; cited from earlier work
[9] = test system: NRVMs; assay: KIC calcium transients in T3-treated NRVMs paced at 2 Hz; type: cell-based, rat; conditions: NRVMs after T3 treatment, 100 µM, 12 seconds recording
[10] = read-out: EC50 Decay, spontaneous calcium transients, hiPSC-CMs
[11] = read-out: EC50 FWHM, spontaneous calcium transients, hiPSC-CMs
[12] = read-out: EC50 Rise Time, spontaneous calcium transients, hiPSC-CMs
[13] = read-out: EC50 T75-25, spontaneous calcium transients, hiPSC-CMs
[14] = Homo sapiens, Cardiomyocyte, read-out: EC50 Decay
[15] = Homo sapiens, Cardiomyocyte, read-out: EC50 FWHM
[16] = Homo sapiens, Cardiomyocyte, read-out: EC50 Rise Time
[17] = Homo sapiens, Cardiomyocyte, read-out: EC50 T75-25
[18] = Average CTR minus average T3 (100 nM, three days)

Structure (SMILES): COC(=O)C1=C(C)NC(C)=C([N+](=O)[O-])C1c1ccccc1C(F)(F)F (stereo not drawn) [Bay K 8644]
- Effect on spontaneous calcium transient (in words) ([1]; hiPSC-CMs): increased the transient amplitude and prolonged its duration
- EC50 [1, 10]: 6.38 nM
- EC50 [1, 11]: 11 nM
- EC50 [1, 12]: 1300 nM
- EC50 [1, 13]: 5.48 nM
- Reported EC50/IC50 [2]: 10–100 nM CR-mc

Structure (SMILES): COc1cc(N)c(Cl)cc1C(=O)NC1CCN(CCCOc2ccc(F)cc2)CC1OC (stereo not drawn) [Cisapride]
- EC50 [1, 14]: 147 nM
- EC50 [1, 15]: 149 nM
- EC50 [1, 16]: 154 nM
- EC50 T75-25 (in words) [1]: N.S
- Effect on spontaneous calcium transient at 10 nM ([1]; hiPSC-CMs, 10 nM): prolonged the calcium transient
- Effect on spontaneous calcium transient at 100 nM ([1]; hiPSC-CMs, 100 nM): reduction in the intensity of the transient and prolongation of the late phase of the decay
- Effect on spontaneous calcium transient at higher concentrations ([1]; hiPSC-CMs, concentrations above 100 nM): completely inhibited the occurrence of spontaneous transients
- Effect on paced [Ca^2+]i transients at 1 µM [3]: almost fused and the maxima were reduced to about half of the initial peak
- Effect on paced [Ca^2+]i transients at 10 µM [3]: narrowed and follow-on maxima were decreased
- Effect on paced [Ca^2+]i transients at 0.1 µM [3]: anomalous [Ca^2+]i kinetics
- Reported EC50/IC50 ([4]; ref Mohammad, 1997, Potet, 2001, Toga, 2007): 6.5–240 nM PC-cc

Structure (SMILES): CN(CCOc1ccc(NS(C)(=O)=O)cc1)CCc1ccc(NS(C)(=O)=O)cc1 [Dofetilide]
- EC50 [1, 14]: 0.75 nM
- EC50 [1, 17]: 5.87 nM
- EC50 FWHM (in words) [1]: N.S
- EC50 Rise Time (in words) [1]: N.S.

Structure (SMILES): O=C(Nc1cc(C(F)(F)F)ccc1O)Nc1cc(C(F)(F)F)ccc1O [NS1463, 1,3-Bis-(2-hydroxy-5-trifluoromethyl-phenyl)-urea]
- EC50 [1, 14]: 2540 nM
- EC50 [1, 15]: 7000 nM
- EC50 [1, 16]: 3890 nM
- EC50 [1, 17]: 2330 nM
- Reported EC50/IC50 [5]: 10.5µM PC-Xl

Structure (SMILES): CC1(C)Oc2ccc(C#N)cc2[C@@H](N2CCCC2=O)[C@@H]1O [Levcromakalim]
- EC50 [1, 14]: 5280 nM
- EC50 [1, 15]: 9160 nM
- EC50 [1, 16]: 3720 nM
- EC50 [1, 17]: 3070 nM
- Reported EC50/IC50 [6]: 1.73 µM TM-ec

Structure (SMILES): Cc1cccc(CCN2CCC(C(=O)c3ccc(NS(C)(=O)=O)cc3)CC2)n1 [E-4031]
- EC50 [1, 10]: 45.7 nM
- EC50 [1, 11]: 44.1 nM
- EC50 [1, 12]: 38.6 nM
- EC50 [1, 13]: 82.2 nM

Structure (SMILES): N[C@@H](Cc1cc(I)c(Oc2ccc(O)c(I)c2)c(I)c1)C(=O)O [T3, Triiodothyronine]
- Difference in ms, FWHM [7, 18]: 311 ms
- Difference in ms, T75-25 [7, 18]: 215 ms
- Difference in ms, TDecay [7, 18]: 190 ms
- Difference in ms, TRise [7, 18]: 119 ms
- FWHM [7]: 567 ± 9 ms
- T75-25 [7]: 439 ± 44 ms
- TDecay [7]: 462 ± 15 ms
- TRise [7]: 104 ms and 104 ± 14 ms
- FWHM ([7]; listed as T3-1): 567 ms
- T75-25 ([7]; listed as T3-1): 390 ms
- TDecay ([7]; listed as T3-1): 447 ms
- TRise ([7]; listed as T3-1): 120 ms
- FWHM ([7]; listed as T3-2): 558 ms
- T75-25 ([7]; listed as T3-2): 450 ms
- TDecay ([7]; listed as T3-2): 462 ms
- TRise ([7]; listed as T3-2): 96 ms
- FWHM ([7]; listed as T3-3): 576 ms
- T75-25 ([7]; listed as T3-3): 477 ms
- TDecay ([7]; listed as T3-3): 477 ms
- Reduction of FWHM ([7]; T3 vs control NRVMs): 35%
- Reduction of T75-25 ([7]; T3 vs control NRVMs): 33%
- Reduction of TDecay ([7]; T3 vs control NRVMs): 29%
- Reduction of TRise ([7]; T3 vs control NRVMs): 53%

Structure (SMILES): CC(C)NCC(O)c1ccc(NS(C)(=O)=O)cc1 (stereo not drawn) [Sotalol]
- EC50 [1, 14]: 85700 nM
- EC50 [1, 15]: 86300 nM
- EC50 [1, 16]: 89100 nM
- EC50 T75-25 (in words) [1]: None
- Reported EC50/IC50 ([4]; ref Peng, 2010): 268µM PC-cc

Structure (SMILES): CCOc1cc(N)c(Cl)cc1C(=O)NCC1CN(Cc2ccc(F)cc2)CCO1 (stereo not drawn) [Mosapride]
- EC50 Decay (in words) [1]: N.S.
- EC50 FWHM (in words) [1]: N.S.
- EC50 Rise Time (in words) [1]: N.S.
- EC50 T75-25 (in words) [1]: N.S.
- Effect on spontaneous calcium transient (in words) ([1]; hiPSC-CMs): did not induce statistically significant changes
- Effect on spontaneous calcium transient (in words) ([1]; hiPSC-CMs, listed as mosapride): minimal effect only at the highest concentrations
- Effect on paced [Ca^2+]i transients at 1 µM [3]: no discernible differences
- Effect on paced [Ca^2+]i transients at 10 µM [3]: pattern similar to 0.1 µM cisapride
- Effect on paced [Ca^2+]i transients at 0.1 µM [3]: no discernible differences
- Affinity for hERG relative to cisapride ([4]; ref Toga, Kohmura, & Kawatsu, 2007): three orders of magnitude less affinity for hERG

Structure (SMILES): COc1ccc(CCN(C)CCCC(C#N)(c2ccc(OC)c(OC)c2)C(C)C)cc1OC (stereo not drawn) [Verapamil]
- EC50 [1, 14]: 170 nM
- EC50 [1, 15]: 260 nM
- EC50 [1, 16]: 460 nM
- EC50 [1, 17]: 390 nM
- Effect on spontaneous calcium transient (in words) ([1]; hiPSC-CMs): dose-dependent reduction in the intensity and duration of the calcium transient
- Effect on spontaneous calcium transient (in words) ([1]; hiPSC-CMs, listed as verapamil): completely blocked the Ca^2+ transient

Structure (SMILES): O=C(NCC1CCCCN1)c1cc(OCC(F)(F)F)ccc1OCC(F)(F)F (stereo not drawn) [Flecainide]
- EC50 [1, 14]: 1010 nM
- EC50 [1, 16]: 9670 nM
- EC50 [1, 17]: 1130 nM
- EC50 FWHM (in words) [1]: N.S.
- Reported EC50/IC50 [8]: 7.4 µM PC-Xl

Structure (SMILES): CC(=O)Oc1ccccc1C(=O)O [Aspirin]
- EC50 Decay (in words) [1]: N.S.
- EC50 FWHM (in words) [1]: N.S.
- EC50 Rise Time (in words) [1]: N.S.
- EC50 T75-25 (in words) [1]: N.S.
- Effect on spontaneous calcium transient (in words) ([1]; hiPSC-CMs): minimal effect only at the highest concentrations

Structure (SMILES): C[C@@H]1CN(c2c(F)c(N)c3c(=O)c(C(=O)O)cn(C4CC4)c3c2F)C[C@H](C)N1 [sparfloxacin]
- Effect on paced calcium transients [9]: highly asynchronous calcium transients
